According to US10004809B2, “Precise delivery of therapeutic agents to cell mitochondria for anti-cancer therapy” (UNIVERSITY OF GEORGIA RESEARCH FOUNDATION, INC., priority 2013, dated 2018):

How the values were obtained:
PC3 cells = experiment: Annexin V/PI apoptosis detection by flow cytometry; type: cell-based, Human; details: 50 μM
Experimental: In order to determine whether the enhanced activity of MITO-DCA upon targeting this compound to the mitochondria of cells was due to apoptosis rather than necrosis, an ALEXA FLUOR™ 488-Annexin-V and propidium iodide (PI) cell staining in PC3 and MSC cells was carried out and data were analyzed using flow cytometry (FIG. 4B). As controls, etoposide treated cells were used as early apoptosis population and H2O2 treated cells were marked as late apoptotic or necrotic population. […] There were no late apoptotic or necrotic cells observed with these compounds.
PC3 and MSC cells were seeded at a density of 1×10^6 cells/mL on each well of a six well plate and allowed to grow overnight. Cells were treated with 50 μM Na-DCA, 150 μM TPP-DCA, and 150 μM MITO-DCA for 12 h at 37° C. As positive controls, etoposide (100 μM, incubation time: 12 h) for apoptosis and H2O2 (1 mM, incubation time: 45 min) for necrosis were used. The cells were trypsinized, repeatedly washed, and centrifuged at 1,800 RPM for 3 min, and the supernatants were discarded. Cell density was determined and cells were resuspended in 1× annexin-binding buffer to ˜1×10^6 cells/mL preparing a sufficient volume to have 100 µL per assay. To 100 μL of cell suspension, 5 μL ALEXA FLUOR™ 488 annexin V and 1 µL 100 μg/mL PI working solution were added and incubated for 15 min at room temperature. After the incubation period, 400 μL 1× annexin-binding buffer was added to each sample, samples were gently mixed keeping the samples on ice and the samples were analyzed on the flow cytometer immediately.

Solubility study = type: physicochemical
Experimental: Solubility of MITO-DCA in water was checked by preparing different concentration of MITO-DCA ranging from 2 μM to 5 mM in DMSO (0.1-2.5%)-phosphate buffered saline (PBS). At all concentrations, MITO-DCA was transparent.

- Solubility in water (appearance of solution) (Solubility study; 2 μM to 5 mM in DMSO (0.1-2.5%)-phosphate buffered saline (PBS)): transparent
- Solubility in an organic solvent (Solubility study; compared with DCA): far higher than that of DCA
Structure (SMILES): O=C(CCCCC[P+](c1ccccc1)(c1ccccc1)c1ccccc1)NC(COC(=O)C(Cl)Cl)(COC(=O)C(Cl)Cl)COC(=O)C(Cl)Cl.[Br-] [MITO-DCA]
- Apoptosis (annexin V/PI) (PC3 cells): complete early apoptosis
